Measured values published in patent US4370330A, “Method of enhancing circulation with piperazines” (Merz & Company, priority 1979, dated 1983).
Where a name gives a salt, the structure may show the parent alone. Read-outs that look alike come from different tables or passages of the source.

Key:
[1] = tested on: cerebrovascular resistance; assay: cerebrovascular resistance on the rabbit (Hutten and Vaupel), decrease in vascular resistance after arterial application; format: in vivo; conditions: for inhibition in vivo at 1 %: Oryctolagus cuniculus, read-out: ΔR % (relative decrease in vascular resistance)
Experimental: The therapeutic effect is expressed in terms of decrease in vascular resistance.
For this purpose 0.1 ml of a 1% solution of the test substance, i.e., according to the invention, was administered to the rabbit by arterial application. The decrease in vascular resistance (R) and the relative decrease in vascular resistance (ΔR%) were recorded and expressed in mm Hg min/l or in the valid S.I. unit k Pa min/ml, i.e., absolute decrease of resistance x time.
The activity of this compound was tested by means of the aforementioned method.

in vivo [2] = assay: in vivo
[3] = acute toxicity after oral application, LD50; conditions: in vivo
Source text: The therapeutic range of the substances according to the invention can again be described as excellent, since the LD50 values lie in a favorable range, as is shown by the results of acute toxicity tests on the mouse after oral application.

in vivo [4] = assay: in vivo; remark: listed apart in the source
Source text: The calculation of the therapeutic indices was based on the

[5] = Table 2; mean effective dose
[6] = Table 1, rabbit, 0.1 ml of a 1% solution, arterial application
[7] = Table 4, rabbit, 0.1 ml of a 1% solution, arterial application
[8] = mouse, po, read-out: Acute toxicity LD50, 24 h
[9] = mouse, po, read-out: Acute toxicity LD50, 14 days
[10] = Table 3, mouse oral, 24 h, read-out: Acute toxicities LD50, 24 h
[11] = Table 3, mouse oral, 14 days, read-out: Acute toxicities LD50, 14 days

Compound | inhibition in vivo at 1 % [1, 6] | Absolute decrease of vascular resistance R [1, 6] | selectivity ratio (in vivo [2]; iv) | LD50 at 24 h [3, 10] | LD50 at 336 h [3, 11] | ED50 [5] | LD50 (in vivo [4]; iv) | other results
C(=C\c1ccccc1)/CN1CCN(C(c2ccccc2)c2ccccc2)CC1 [Cinnarizine, reference compound] | 19.3% | 2,9 mm Hg min/l |  |  |  |  |  | Absolute decrease in vascular resistance R [1, 7]: 2.9 mm Hg min/l
COc1cc(CN2CCN(c3ccc(C)c(C)c3)CC2)cc(OC)c1OC [Example 1] |  |  |  |  |  |  |  | selectivity ratio (in vivo [2]): 13000; LD50 at 24 h [3, 8]: 348 mg/kg; LD50 at 336 h [3, 9]: 263 mg/kg; inhibition in vivo at 1 % [1, 7]: 24.3%; LD50 (in vivo [4]): 260 mg/kg
COc1cc(CN2CCN(c3ccc(Cl)c(C(F)(F)F)c3)CC2)cc(OC)c1OC [Example 2] |  |  |  |  |  |  |  | selectivity ratio (in vivo [2]): 3150; LD50 at 24 h [3, 8]: 328 mg/kg; LD50 at 336 h [3, 9]: 283 mg/kg; inhibition in vivo at 1 % [1, 7]: 26.3%; LD50 (in vivo [4]): 283 mg/kg
COc1cc(CN2CCN(c3ccc4c(c3)OCO4)CC2)cc(OC)c1OC [Example 3] |  |  |  |  |  |  |  | selectivity ratio (in vivo [2]): 2700; LD50 at 24 h [3, 8]: 312 mg/kg; LD50 at 336 h [3, 9]: 296 mg/kg; inhibition in vivo at 1 % [1, 7]: 22%; LD50 (in vivo [4]): 297 mg/kg
COc1cc(CN2CCN(c3cc(OC)c(OC)c(OC)c3)CC2)cc(OC)c1OC [Example 4] |  |  |  |  |  |  |  | selectivity ratio (in vivo [2]): 7000; LD50 at 24 h [3, 8]: 348 mg/kg; LD50 at 336 h [3, 9]: 348 mg/kg; inhibition in vivo at 1 % [1, 7]: 21.5%; LD50 (in vivo [4]): 350 mg/kg
COc1cc(CN2CCN(c3cc(C(F)(F)F)cc(C(F)(F)F)c3)CC2)cc(OC)c1OC [Example 5] |  |  |  |  |  |  |  | selectivity ratio (in vivo [2]): 5600; LD50 at 24 h [3, 8]: 300 mg/kg; LD50 at 336 h [3, 9]: 280 mg/kg; inhibition in vivo at 1 % [1, 7]: 20.6%; LD50 (in vivo [4]): 280 mg/kg
COc1cc(CN2CCN(c3c(C)cccc3C)CC2)cc(OC)c1OC [Example 6] |  |  |  |  |  |  |  | selectivity ratio (in vivo [2]): 3800; LD50 at 24 h [3, 8]: 348 mg/kg; LD50 at 336 h [3, 9]: 265 mg/kg; inhibition in vivo at 1 % [1, 7]: 23%; LD50 (in vivo [4]): 265 mg/kg
COc1cc(CN2CCN(c3ccccc3)CC2)cc(OC)c1OC.Cl [Example 21, N-(3,4,5-trimethoxy-benzyl)-N'-phenyl-piperazine hydrochloride] |  |  |  |  |  |  |  | LD50 at 24 h ([3]; mouse, oral, 24 hours, read-out: oral acute toxicity (LD50) after 24 hours): 320 mg/kg; LD50 at 336 h ([3]; mouse, oral, fourteen days, read-out: oral acute toxicity (LD50) after fourteen days): 265 mg/kg; Absolute decrease of vascular resistance R ([1]; Hutten and Vaupel rabbit test): 3.0 mm. Hg. min/l; circulation stimulant activity (in words) ([1]; Hutten and Vaupel rabbit test): circulation stimulant; decrease of vascular resistance (ΔR %) ([1]; Hutten and Vaupel rabbit test): 23.2%
COc1cccc(N2CCN(Cc3cc(OC)c(OC)c(OC)c3)CC2)c1.Cl [m. Methoxy-, N-(3,4,5-trimethoxy-benzyl)-N'-(3-methoxyphenyl)-piperazine hydrochloride] | 28.5% | 3,0 mm Hg min/l | 2010 | 411 mg/kg | 285 mg/kg | 0,42 mg/kg | 850 mg/kg | 
COc1cc(CN2CCN(c3cccc(C)c3)CC2)cc(OC)c1OC.Cl [m. Methyl-, N-(3,4,5-trimethoxy-benzyl)-N'-(3-methylphenyl)-piperazine hydrochloride] | 22% | 3,2 mm Hg min/l | 1520 | 452 mg/kg | 310 mg/kg | 0,46 mg/kg | 700 mg/kg | 
COc1cc(CN2CCN(c3ccccc3Cl)CC2)cc(OC)c1OC.Cl.Cl [o. Chloro-, N-(3,4,5-trimethoxy-benzyl)-N'-(2-chlorophenyl)-piperazine dihydrochloride] | 27.9% | 3,0 mm Hg min/l | 2130 | 295 mg/kg | 255 mg/kg | 0,38 mg/kg | 810 mg/kg | 
CCOc1ccccc1N1CCN(Cc2cc(OC)c(OC)c(OC)c2)CC1.Cl.Cl [o. Ethoxy-, N-(3,4,5-trimethoxy-benzyl)-N'-(2-ethoxyphenyl)-piperazine dihydrochloride] | 20.4% | 2,85 mm Hg min/l | 1990 | 411 mg/kg | 266 mg/kg | 0,45 mg/kg | 900 mg/kg | 
CCc1ccccc1N1CCN(Cc2cc(OC)c(OC)c(OC)c2)CC1.Cl.Cl [o. Ethyl-, N-(3,4,5-trimethoxy-benzyl)-N'-(2-ethylphenyl)-piperazine dihydrochloride] | 21.7% | 3,0 mm Hg min/l | 2240 | 456 mg/kg | 311 mg/kg | 0,40 mg/kg | 900 mg/kg | 
COc1cc(CN2CCN(c3ccccc3F)CC2)cc(OC)c1OC.Cl [o. Fluoro-, N-(3,4,5-trimethoxy-benzyl)-N'-(2-fluorophenyl)-piperazine hydrochloride] | 23% | 3,0 mm Hg min/l | 2280 |  |  | 0,40 mg/kg | 920 mg/kg | 
COc1ccccc1N1CCN(Cc2cc(OC)c(OC)c(OC)c2)CC1.Cl.Cl [o. Methoxy-, N-(3,4,5-trimethoxy-benzyl)-N'-(2-methoxyphenyl)-piperazine dihydrochloride] | 22.2% | 2,94 mm Hg min/l | 2750 |  |  | 0,42 mg/kg | 1150 mg/kg | 
COc1cc(CN2CCN(c3ccccc3C)CC2)cc(OC)c1OC [o. Methyl-, N-(3,4,5-trimethoxybenzyl)-N'-(2-methylphenyl)-piperazine] | 24.5% | 3,3 mm Hg min/l | 1450 | 457 mg/kg | 311 mg/kg | 0,48 mg/kg | 700 mg/kg | 
COc1cc(CN2CCN(c3ccccc3[N+](=O)[O-])CC2)cc(OC)c1OC.Cl [o. Nitro-, N-(3,4,5-trimethoxy-benzyl)-N'-(2-nitrophenyl)-piperazine hydrochloride] | 20.6% | 3,1 mm Hg min/l | 1300 | 274 mg/kg | 201 mg/kg | 0,50 mg/kg | 650 mg/kg | 
COc1cc(CN2CCN(c3ccc(F)cc3)CC2)cc(OC)c1OC.Cl [p. Fluoro-, N-(3,4,5-trimethoxy-benzyl)-N'-(4-fluorophenyl)-piperazine hydrochloride] | 26.4% | 4,6 mm Hg min/l | 1570 | 350 mg/kg | 275 mg/kg | 0,37 mg/kg | 580 mg/kg | 
COc1cc(CN2CCN(c3ccc(O)cc3)CC2)cc(OC)c1OC.Cl [p. Hydroxy-, N-(3,4,5-trimethoxy-benzyl)-N'-(4-hydroxyphenyl)-piperazine hydrochloride] | 19.5% | 2,8 mm Hg min/l | 2800 | 306 mg/kg | 245 mg/kg | 0,45 mg/kg | 1260 mg/kg | 
COc1ccc(N2CCN(Cc3cc(OC)c(OC)c(OC)c3)CC2)cc1.Cl.Cl [p. Methoxy-, N-(3,4,5-trimethoxy-benzyl)-N'-(4-methoxyphenyl)-piperazine dihydrochloride] |  | 3,90 mm Hg min/l | 3050 |  |  | 0,30 mg/kg | 910 mg/kg | inhibition in vivo at 1 % [1]: 27.8%
COc1cc(CN2CCN(c3ccc(C)cc3)CC2)cc(OC)c1OC [p. Methyl-, hydrochloride] | 23% | 3,3 mm Hg min/l | 1630 | 459 mg/kg | 312 mg/kg | 0,44 mg/kg | 720 mg/kg | 
